# Data taken from patent US20080241816A1, “Method for Stabilizing Oxidizable Color Developing Reagent” (DAIICHI PURE CHEMICALS CO., LTD, priority 2004, published 2008).
# Columns and labels:
# [1] = Stabilization Test 1 for TPM-PS (storage at 37° C., absorbance at 600 nm); format: physicochemical; settings: for absorbance at 600 nm, 2-Week storage / absorbance at 600 nm, 3-Week storage / absorbance at 600 nm, Time 0: 37° C.; for absorbance at 600 nm, Time 0: time 0 (start)
# Method: TPM-PS was dissolved in each of the aqueous solutions described below so as to attain a concentration of 60 μM, and stored at 37° C. Subsequently, absorbance was measured at 600 nm by means of an automated analyzer (Model 7150; product of Hitachi, Ltd.).
# [2] = Stabilization Test 2 for TPM-PS (storage at 25° C. for 10 days, absorbance at 600 nm); format: physicochemical; settings: for Variation over 10 days (OD): 600 nm
# Method: TPM-PS was dissolved in each of the aqueous solutions described below so as to attain a concentration of 100 μM, and absorbance was measured at 600 nm. After each sample was stored at 25° C. for 10 days, absorbance was again measured at 600 nm.
# [3] = 60 μM in 5 mM Citric acid (pH 2.8)
# [4] = 60 μM in 5 mM Maleic acid (pH 2.5)
# [5] = 60 μM in 5 mM Tartaric acid (pH 2.8)
structure (smiles),measurement,setting,value
"O=S(=O)(O)CCCN(CCCS(=O)(=O)O)c1ccc(C(c2ccc(N(CCCS(=O)(=O)O)CCCS(=O)(=O)O)cc2)c2ccc(N(CCCS(=O)(=O)O)CCCS(=O)(=O)O)cc2)cc1 [TPM-PS, N,N,N′,N′,N″,N″-hexa-3-sulfopropyl-4,4′,4″-triaminotriphenylmethane]","absorbance at 600 nm, 2-Week storage",[1]; [3],0.057
same,"absorbance at 600 nm, 3-Week storage",[1]; [3],0.080
same,"absorbance at 600 nm, Time 0",[1]; [3],0.022
same,"absorbance at 600 nm, 2-Week storage",[1]; [4],0.050
same,"absorbance at 600 nm, 3-Week storage",[1]; [4],0.072
same,"absorbance at 600 nm, Time 0",[1]; [4],0.023
same,"absorbance at 600 nm, 2-Week storage",[1]; [5],0.064
same,"absorbance at 600 nm, 3-Week storage",[1]; [5],0.088
same,"absorbance at 600 nm, Time 0",[1]; [5],0.024
same,"absorbance at 600 nm, 2-Week storage",[1]; 60 μM in 20 mM PB-K (pH 8),0.132
same,"absorbance at 600 nm, 3-Week storage",[1]; 60 μM in 20 mM PB-K (pH 8),0.215
same,"absorbance at 600 nm, Time 0",[1]; 60 μM in 20 mM PB-K (pH 8),0.023
same,nonspecific color development / stability in solution,"[1]; aqueous solutions of pH 1 to 5, 37° C.",suppressed effectively
same,Variation over 10 days (OD),"[2]; 100 μM in 100 mM Citrate buffer, pH 3, 25° C.",−0.01 OD
same,Variation over 10 days (OD),"[2]; 100 μM in 100 mM Citrate buffer, pH 4, 25° C.",0.08 OD
same,Variation over 10 days (OD),"[2]; 100 μM in 100 mM Citrate buffer, pH 5, 25° C.",0.15 OD
same,Variation over 10 days (OD),"[2]; 100 μM in 100 mM Glycine-HCl, pH 2, 25° C.",0.00 OD
same,Variation over 10 days (OD),"[2]; 100 μM in 100 mM Glycine-HCl, pH 3, 25° C.",−0.01 OD
same,Variation over 10 days (OD),"[2]; 100 μM in 100 mM Potassium phosphate buffer, pH 6, 25° C.",0.22 OD
same,Variation over 10 days (OD),"[2]; 100 μM in 100 mM Potassium phosphate buffer, pH 7, 25° C.",0.16 OD
same,Variation over 10 days (OD),"[2]; 100 μM in 100 mM Potassium phosphate buffer, pH 8, 25° C.",0.17 OD
same,Variation over 10 days (OD),"[2]; 100 μM in Control (purified water), pH Not regulated, 25° C.",0.22 OD
same,Variation over 10 days (OD),"[2]; 100 μM in HCl—KCl, pH 1, 25° C.",−0.01 OD
same,Variation over 10 days (OD),"[2]; 100 μM in HCl—KCl, pH 2, 25° C.",0.01 OD
same,absorbance variation / storage stability,"[2]; aqueous solution of pH 1 to 5, 25° C., 10 days",stably stored
